According to patent US7897582B2, “Oligonucleotide compositions and methods for the modulation of the expression of B7 protein” (Isis Pharmaceuticals, Inc., priority 2003, dated 2011):
Strand notation (5' to 3'): a small letter for the sugar, then the base; units joined by * are phosphorothioate-linked, units joined directly phosphodiester-linked; [ ] holds rarer units or linkages, { } end groups; capitals alone tell only the bases. e = 2'-O-(2-methoxyethyl) (MOE); [5mC] = 5-methylcytosine; d = 2'-deoxy (DNA)

Key:
[1] = tested on: human B7-2; experiment: Cell surface expression of B7-2 in transfected COS-7 cells by flow cytometry; format: cell-based; details: for % Surface Inhibition / % Surface Expression: COS-7 cells, B7-2 cell surface; for % Surface Expression: basal = 100%; for % B7-2 EXPRESSION: human B7 cell surface expression, Table 16
Method: (§1) A T-175 flask was seeded at 75% confluency with COS-7 cells (ATCC accession No. CRL 1651). The plasmid pcB7-1 was introduced into cells by standard calcium phosphate transfection. Following a 4 hour transfection, the cells were trypsinized and seeded in 12-well dishes at 80% confluency. The cells were allowed to adhere to the plastic for 1 hour and were then washed with phosphate-buffered saline (PBS). OptiMEM™ (GIBCO-BRL, Gaithersburg, Md.) medium was added along with 15 μg/mL of Lipofectin™ (GIBCO-BRL, Gaithersburg, Md.) and oligonucleotide at the indicated concentrations. After four additional hours, the cells were washed with phosphate buffered saline (PBS) and incubated with fresh oligonucleotide at the same concentration in DMEM (Dulbecco et al., Virol., 1959, 8, 396; Smith et al., Virol., 1960, 12, 185) with 10% fetal calf sera (FCS).
(§2) In order to monitor the effects of oligonucleotides on cell surface expression of B7-1, treated COS-7 cells were harvested by brief trypsinization 24-48 hours after oligonucleotide treatment. The cells were washed with PBS, then resuspended in 100 μL of staining buffer (PBS, 0.2% BSA, 0.1% azide) with 5 μL conjugated anti-B7-1-antibody (i.e., anti-hCD80-FITC, Ancell, Bayport, Minn.; FITC: fluorescein isothiocyanate). The cells were stained for 30 minutes at 4° C., washed with PBS, resuspended in 300 μL containing 0.5% paraformaldehyde. Cells were harvested and the fluorescence profiles were determined using a flow cytometer.
In an initial screen, the ability of hB7-2 oligonucleotides to inhibit B7-2 expression was evaluated by measuring the cell surface expression of B7-2 in transfected COS-7 cells by flow cytometry. The methods used were similar to those given in Example 2, with the exceptions that (1) COS-7 cells were transfected with the plasmids pbcB7-2 or BBG-58, a human ICAM-1 (CD54) expression vector (R&D Systems, Minneapolis, Minn.) introduced into cells by standard calcium phosphate transfection, (2) the oligonucleotides used were those described in Table 2, and (3) a conjugated anti-B7-2 antibody (i.e., anti-hCD86-FITC or anti-CD86-PE, PharMingen, San Diego, Calif.; PE: phycoerythrin) was used during flow cytometry.
(§3) B7 antisense oligonucleotides were tested for their effect on cell surface expression of both B7-1 and B7-2. Cell surface expression was measured as described in Example 1. Experiments were done for both human B7 and mouse B7.
The oligonucleotides were screened as described in Example 2 except that the concentration of oligonucleotide was varied as shown in Table 19.

[2] = tested on: human B7-1; experiment: Cell surface expression of B7-1 in pcB7-1-transfected COS-7 cells by flow cytometry; format: cell-based; details: for % B7-1 EXPRESSION: human B7 cell surface expression, Table 16
Method: The ability of oligonucleotides to inhibit B7-1 expression was evaluated by measuring the cell surface expression of B7-1 in transfected COS-7 cells by flow cytometry.
as §1, §2, §3
The oligonucleotides were screened as described in Example 2 except that the concentration of oligonucleotide was varied as shown in Table 18.

[3] = tested on: Human B7-1 mRNA; experiment: Human B7-1 mRNA expression in electroporated, LPS-induced THP-1 cells; format: cell-based; details: THP-1 cells electroporated at 10 micromolar oligonucleotide, LPS 1 μg/ml 16 hours
Source text: The human promonocytic leukaemia cell line, THP-1 (American Type Culture Collection, Manassas, Va.) was maintained in RPMI 1640 growth media supplemented with 10% fetal calf serum (FCS; Life Technologies, Rockville, Md.). A total of 1×10^7 cells were electroporated at an oligonucleotide concentration of 10 micromolar in 2 mm cuvettes, using an Electrocell Manipulator 600 instrument (Biotechnologies and Experimental Research, Inc.) employing 200 V, 1000 μF. Electroporated cells were then transferred to petri dishes and allowed to recover for 16 hrs. Cells were then induced with LPS at a final concentration of 1 μg/ml for 16 hours. RNA was isolated and processed as described in previous examples.

[4] = tested on: hB7-2 mRNA; experiment: Ribonuclease protection assay of hB7-2 mRNA in transfected COS-7 cells; format: cell-based, human
Method: For ribonuclease protection assays, cells were harvested 18 hours after completion of oligonucleotide treatment using a Totally RNA™ kit (Ambion, Austin, Tex.). The probes for the assay were generated from plasmids pcB7-2 (linearized by digestion with Bgl II) and pTRI-b-actin (Ambion Inc., Austin, Tex.). In vitro transcription of the linearized plasmid from the SP6 promoter was performed in the presence of α-^32P-UTP (800 Ci/mmole) yielding an antisense RNA complementary to the 3′ end of B7-2 (position 1044-1391). The probe was gel-purified after treatment with DNase I to remove DNA template. Ribonuclease protection assays were carried out using an RPA II™ kit (Ambion) according to the manufacturer's directions. Total RNA (5 μg) was hybridized overnight, at 42° C., with 10^5 cpm of the B7-2 probe or a control beta-actin probe. The hybridization reaction was then treated, at 37° C. for 30 minutes, with 0.4 units of RNase A and 2 units of RNase T1. Protected RNA was precipitated, resuspended in 10 μL of gel loading buffer and electrophoresed on a 6% acrylamide gel with 50% w/v urea at 20 W. The gel was then exposed and the lanes quantitated using a PhosphorImager (Molecular Dynamics, Sunnyvale, Calif.) essentially according to the manufacturer's instructions.
The oligonucleotides were screened as described in Example 4 except that the concentration of oligonucleotide was varied as shown in Table 13. Mismatch control oligonucleotides were included.

[5] = COS-7 cells, B7-2 mRNA, oligonucleotide dose 10 nM
[6] = COS-7 cells, B7-2 mRNA, oligonucleotide dose 10 nM, basal = 100%
[7] = COS-7 cells, B7-2 mRNA, oligonucleotide dose 30 nM
[8] = COS-7 cells, B7-2 mRNA, oligonucleotide dose 30 nM, basal = 100%
[9] = COS-7 cells, B7-2 mRNA, oligonucleotide dose 100 nM
[10] = COS-7 cells, B7-2 mRNA, oligonucleotide dose 100 nM, basal = 100%
[11] = COS-7 cells, B7-2 mRNA, oligonucleotide dose 300 nM
[12] = COS-7 cells, B7-2 mRNA, oligonucleotide dose 300 nM, basal = 100%

ISIS 13872: scrambled control of ISIS 13812; SEQ ID NO: 52 (SEQ ID NO: 37) (antisense dA*dG*dT*dC*dC*dT*dA*dC*dT*dA*dC*dC*dA*dG*dC*dC*dG*dC*dC*dT) [reference compound]
effect on B7-2 expression (specificity) ([1]; FIG. 5): essentially no activity | effect on B7-1 expression (specificity) ([2]; FIG. 5): essentially no activity

113493 (antisense eT*eG*eG*e[5mC]*eT*dT*d[5mC]*dA*dG*dA*dT*dG*d[5mC]*dT*dT*eA*eG*eG*eG*eT) [compound 113493]
% mRNA EXPRESSION [3]: 488%

ISIS 13800: phosphorothioate oligonucleotide to human B7-1 mRNA 0158-0177; 5′ UTR; SEQ ID NO: 25 (antisense dA*dC*dA*dC*dA*dC*dA*dG*dA*dG*dA*dT*dT*dG*dG*dA*dG*dG*dG*dT)
inhibition of B7-1 expression ([2]; COS-7 cells transiently expressing B7-1 cDNA, FIG. 1): essentially no inhibition | inhibition of cell surface expression of B7-1 at various concentrations ([2]; dose response, FIG. 2): essentially inactive

113518 (antisense e[5mC]*eA*eA*eG*eA*d[5mC]*dA*dA*dT*dT*d[5mC]*dA*dA*dG*dA*eT*eG*eG*e[5mC]*eA) [compound 113518]
% mRNA EXPRESSION [3]: 97% | % mRNA INHIBITION [3]: 03%

113490 (antisense eG*eA*eA*eG*eA*d[5mC]*d[5mC]*d[5mC]*dT*d[5mC]*d[5mC]*dA*dG*dT*dG*eA*eT*eG*eT*eT) [compound 113490]
% mRNA EXPRESSION [3]: 183%

22294 (eG*eG*eT*e[5mC]*e[5mC]*dA*dA*d[5mC]*dT*dG*dT*d[5mC]*d[5mC]*dG*dA*eA*eT*e[5mC]*eA*eA; antisense) [compound 22294]
% mRNA INHIBITION [4, 5]: 7% | % mRNA EXPRESSION [4, 6]: 93% | % mRNA INHIBITION [4, 7]: 5% | % mRNA EXPRESSION [4, 8]: 95% | % mRNA INHIBITION [4, 9]: 42% | % mRNA EXPRESSION [4, 10]: 58% | % mRNA INHIBITION [4, 11]: 55% | % mRNA EXPRESSION [4, 12]: 45% | % mRNA EXPRESSION ([4]; human B7-2 mRNA, Table 12): 21% | % Surface Inhibition ([1]; dose 10 nM): 11% | % Surface Expression ([1]; dose 10 nM): 89% | % Surface Inhibition ([1]; dose 30 nM): 38% | % Surface Expression ([1]; dose 30 nM): 62% | % Surface Inhibition ([1]; dose 100 nM): 71% | % Surface Expression ([1]; dose 100 nM): 29% | % Surface Inhibition ([1]; dose 300 nM): 88% | % Surface Expression ([1]; dose 300 nM): 12% | % B7-2 EXPRESSION [1]: 28% | % B7-1 EXPRESSION [2]: 77%

22287 (eA*eG*eA*eA*eT*dG*dT*dT*dA*d[5mC]*dT*d[5mC]*dA*dG*dT*e[5mC]*e[5mC]*e[5mC]*eA*eT; antisense) [compound 22287]
% mRNA INHIBITION [4, 5]: 7% | % mRNA EXPRESSION [4, 6]: 93% | % mRNA INHIBITION [4, 7]: 21% | % mRNA EXPRESSION [4, 8]: 79% | % mRNA INHIBITION [4, 9]: 34% | % mRNA EXPRESSION [4, 10]: 66% | % mRNA INHIBITION [4, 11]: 55% | % mRNA EXPRESSION [4, 12]: 45% | % mRNA EXPRESSION ([4]; human B7-2 mRNA, Table 12): 27% | % Surface Inhibition ([1]; dose 10 nM): 7% | % Surface Expression ([1]; dose 10 nM): 93% | % Surface Inhibition ([1]; dose 30 nM): 40% | % Surface Expression ([1]; dose 30 nM): 60% | % Surface Inhibition ([1]; dose 100 nM): 68% | % Surface Expression ([1]; dose 100 nM): 32% | % Surface Inhibition ([1]; dose 300 nM): 85% | % Surface Expression ([1]; dose 300 nM): 15% | % B7-2 EXPRESSION [1]: 35% | % B7-1 EXPRESSION [2]: 92%

113491 (antisense e[5mC]*eG*eT*eA*eG*dA*dA*dG*dA*d[5mC]*d[5mC]*d[5mC]*dT*d[5mC]*d[5mC]*eA*eG*eT*eG*eA) [compound 113491]
% mRNA EXPRESSION [3]: 179%

113497 (antisense eA*eG*eG*eT*eA*dT*dG*dG*dA*d[5mC]*dA*d[5mC]*dT*dT*dG*eG*eA*eT*eG*eG) [compound 113497]
% mRNA EXPRESSION [3]: 78% | % mRNA INHIBITION [3]: 22%

113516 (antisense eT*eT*eT*eG*eT*dT*dA*dA*dG*dG*dG*dA*dA*dG*dA*eA*eT*eG*e[5mC]*e[5mC]) [compound 113516]
% mRNA EXPRESSION [3]: 83% | % mRNA INHIBITION [3]: 17%

113492 (antisense eT*eT*e[5mC]*e[5mC]*e[5mC]*dA*dG*dG*dT*dG*d[5mC]*dA*dA*dA*dA*e[5mC]*eA*eG*eG*e[5mC]) [compound 113492]
% mRNA EXPRESSION [3]: 27% | % mRNA INHIBITION [3]: 73%

113509 (antisense e[5mC]*eA*eT*eG*eA*dA*dG*d[5mC]*dT*dG*dT*dG*dG*dT*dT*eG*eG*eT*eT*eG) [compound 113509]
% mRNA EXPRESSION [3]: 62% | % mRNA INHIBITION [3]: 38%

113515 (antisense eA*eG*eA*eT*e[5mC]*dT*dT*dT*dT*d[5mC]*dA*dG*d[5mC]*d[5mC]*d[5mC]*e[5mC]*eT*eT*eG*e[5mC]) [compound 113515]
% mRNA EXPRESSION [3]: 184%

113495 (antisense eG*eG*eT*eG*eA*dT*dG*dT*dT*d[5mC]*d[5mC]*d[5mC]*dT*dG*d[5mC]*e[5mC]*eT*e[5mC]*e[5mC]*eG) [compound 113495]
% mRNA EXPRESSION [3]: 43% | % mRNA INHIBITION [3]: 57%

113507 (antisense eT*eT*e[5mC]*eT*e[5mC]*d[5mC]*dA*dT*dT*dT*dT*d[5mC]*d[5mC]*dA*dA*e[5mC]*e[5mC]*eA*eG*eG) [compound 113507]
% mRNA EXPRESSION [3]: 36% | % mRNA INHIBITION [3]: 64%

113501 (antisense eA*eG*eA*eT*eG*d[5mC]*dG*dA*dG*dT*dT*dT*dG*dT*dG*e[5mC]*e[5mC]*eA*eG*e[5mC]) [compound 113501]
% mRNA EXPRESSION [3]: 36% | % mRNA INHIBITION [3]: 64%

113502 (antisense e[5mC]*e[5mC]*eT*eT*eT*dT*dG*d[5mC]*d[5mC]*dA*dG*dT*dA*dG*dA*eT*eG*e[5mC]*eG*eA) [compound 113502]
% mRNA EXPRESSION [3]: 26% | % mRNA INHIBITION [3]: 74%
